Laboratory results published in patent publication US7214688B2 (priority 2000, dated 2007).

Molecular target: α7 nAChR subtype (Rattus norvegicus, UniProt Q05941)
Type: binding
Details: read-out: KD of radioligand (saturation curves, one site model)

α7 nAChR subtype, sequence (Q05941 23-502 limits assumed): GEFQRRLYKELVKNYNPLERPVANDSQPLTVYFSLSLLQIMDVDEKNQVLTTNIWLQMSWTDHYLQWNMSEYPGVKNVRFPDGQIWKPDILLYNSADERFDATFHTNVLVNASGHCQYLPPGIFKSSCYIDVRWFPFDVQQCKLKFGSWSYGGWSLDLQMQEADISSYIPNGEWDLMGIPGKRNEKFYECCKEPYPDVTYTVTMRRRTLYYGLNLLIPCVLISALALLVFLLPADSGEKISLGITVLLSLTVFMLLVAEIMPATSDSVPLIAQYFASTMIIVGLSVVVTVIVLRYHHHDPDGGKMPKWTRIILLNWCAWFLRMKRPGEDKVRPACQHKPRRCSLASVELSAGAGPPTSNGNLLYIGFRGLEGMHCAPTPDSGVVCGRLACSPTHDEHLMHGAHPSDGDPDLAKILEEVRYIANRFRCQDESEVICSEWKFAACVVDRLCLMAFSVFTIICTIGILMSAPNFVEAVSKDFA

Work on “125I-α-Bungarotoxin [Example 125I-α-BTX]” yielded a Kd of 1.67 nM.
